Experiments:
[1] = Zinc release from gels, USP-paddle apparatus with gel containers, Zn content by ICP; type: physicochemical; conditions: zinc released from HA gels of Example 4 with 1 mM zinc salt; 600 ml release medium, 30 rpm, 37° C.
Description: The zinc release from the gels was measured by the USP-paddle apparatus using special gel containers in which the gel was placed. A gel containing 1 mM ZnCl2 was manufactured according to Example 1. The gel was filled into 7 gel containers with a fixed volume of 1 ml. The geometry of the filled gel was a cylinder […] in diameter and 3 mm deep. The gels were covered by a mesh-size plastic net (PA80 m=200 mesh, AB Derma) and a coarse stainless steel net, care was taken to assure that no air was trapped between the gel and the plastic net.
Each gel container was immersed in 600 ml thermostated release medium, stirred at 30 rpm and maintained at 37° C. using a Distek Evolution 6100 (North Brunswick, N.J.). At predetermined time points, gel containers were removed and the Zn content in the container was determined using ICP.
Gels prepared according to example 4 containing zinc chloride (1 mM), zinc gluconate (1 mM) and zinc citrate (1 mM) respectively were analyzed as described in Example 7.

[2] = Rheology (elastic modulus G′ within the LVR) of HA gel formulations after autoclaving; type: physicochemical; conditions: after autoclaving (F0~19); 1 mM Zn salt, HA 20 mg/mL
Description: The rheological properties of the formulations were analyzed using an Ahres G2 reometer (measure system PP 40, gap 1.00 mm). Initially a strain sweep was made to find the linear viscoelastic region (LVR) and then the viscoelastic properties were measured within the LVR.

Molecule | time for 25% released [1] | Effect of Zn on G′ of the gel versus reference swelled in buffer only [2]
[Cl-].[Cl-].[Zn+2] [zinc chloride] | ~75 h | stabilizing effect
O=C([O-])CC(O)(CC(=O)[O-])C(=O)[O-].O=C([O-])CC(O)(CC(=O)[O-])C(=O)[O-].[Zn+2].[Zn+2].[Zn+2] [zinc citrate] | ~3 h | stabilizing effect
zinc gluconate | ~24 h | stabilizing effect

Reference: US10898613B2, “Hyaluronic acid gel with a divalent zinc cation” (Nestlé Skin Health SA, priority 2016, dated 2021)
